How the values were obtained:
[1] = assay type: in vivo, mouse (female Swiss Webster); settings: intra-articular, 2 ul, normalized to maximum possible value of 100%
Protocol: For this example control SPLVs were prepared as described in Section 4.3. using the following formulation: 100 mg EPC, 3.7 mg PE, and 10 mg indomethacin were dissolved in chloroform and then dried down to a film. The indomethacin was entrapped in the SPLVs by resuspending the film in ether, adding the aqueous phase and sonicating while evaporating. Trace amounts of radiolabeled ^14 C-indomethacin were incorporated to quantify retention of drug in joints of injected test animals.
Twenty-five female Swiss Webster mice were anesthetized with 50 mg/kg pentobarbitol and divided into 5 treatment groups. Group 1 was treated with unentrapped ^14 C-indomethacin (trace amount) in PBS buffer solution. Group 2 was treated with ^14 C-indomethacin entrapped in SPLVs (control SPLVs). Group 3 was treated with fibronectin-modified control SPLVs (non-covalent association) prepared by incubation of the SPLV-entrapped ^14 C-indomethacin with 0.3 mg fibronectin (FN, Seragen, Inc., Boston, Mass.; or Collaborative Research, Inc., Lexington, Mass.) for 2 hours before the SPLVs were repeatedly washed to remove unincorporated materials. Groups 4 and 5 were treated with SPLVs in which fibronectin was covalently attached to the liposomes. […] Two drops of glacial acetic acid were then added and samples were dark adapted over night before radioactivity was determined.

[2] = ocular application; cited from earlier work

| % Total 14C-Indomethacin Remaining in Joint, 5 Hours ([1]; 5 hours post-injection) [%] | % Total 14C-Indomethacin Remaining in Joint, 24 Hours ([1]; 24 hours post-injection) [%] | Compound | effectiveness in treating recurrent corneal erosion [2] |
| --- | --- | --- | --- |
| 4.7 | 1.0 | COc1ccc2c(c1)c(CC(=O)O)c(C)n2C(=O)c1ccc(Cl)cc1 [Unentrapped 14C-Indomethacin, indomethacin] |  |
|  |  | fibronectin | effective |
